According to patent US20210311075A1, “METHODS FOR DETECTING DISORDERS RELATED TO CALCIUM DISCHARGE FROM INTRACELLULAR STORES” (The Regents of the University of California, priority 2017, published 2021):

Legend:
Type in all cases: cell-based
[1] = system: T lymphocytes isolated from RyR163C mice; assay: Fura-2 intracellular calcium imaging in T lymphocytes from RyR163C mice; conditions: for Δ1/Δ2 ratio: preincubated, fura-2
Source text: (§1) FIGS. 3A and 3B show intracellular calcium measurements in T lymphocytes. […] Shown are average traces recorded from at least 20 cells in one representative experiment.

[2] = system: T lymphocytes isolated from control WT mice; assay: Fura-2 intracellular calcium imaging in T lymphocytes from wild-type mice; conditions: SERCA blocker applied in about 0 mM extracellular calcium; WT cells, compared to 5×FAD and RyR163C
Source text: as §1

[3] = system: T lymphocytes isolated from 5×FAD mice; assay: Fura-2 intracellular calcium imaging in T lymphocytes from 5×FAD mice; conditions: SERCA blocker applied in about 0 mM extracellular calcium; 5×FAD T lymphocytes
Source text: as §1

ryanodine
basal intracellular calcium levels ([1]; ryanodine 800 μM): reducing
responses to thapsigargin ([1]; ryanodine 800 μM): increasing
Δ1/Δ2 ratio ([1]; ryanodine 800 μM): reduced

C/C=C(/C)C(=O)O[C@H]1C(C)=C2[C@H]([C@@H]1OC(=O)CCCCCCC)[C@@](C)(OC(C)=O)C[C@H](OC(=O)CCC)[C@@]1(O)[C@H]2OC(=O)[C@@]1(C)O [thapsigargin]
intracellular calcium transients evoked (Δ2=F3−F2) [2]: larger
intracellular calcium transients evoked (Δ2=F3−F2) [3]: barely detectable
intracellular calcium transients evoked (Δ2=F3−F2) ([1]; SERCA blocker applied in about 0 mM extracellular calcium): barely detectable

O=C1CN(/N=C/c2ccc(-c3ccc([N+](=O)[O-])cc3)o2)C(O)=N1 [dantrolene]
basal intracellular calcium levels ([1]; dantrolene 50 μM): reducing
responses to thapsigargin ([1]; dantrolene 50 μM): increasing
Δ1/Δ2 ratio ([1]; dantrolene 50 μM): reduced
